# From ChEMBL document CHEMBL1629514, “Synthesis, biological activity, and evaluation of the mode of action of novel antitubercular benzofurobenzopyrans substituted on A ring” (Eur J Med Chem, 2010)
# Test system: Mycobacterium tuberculosis
# Assay: Antimycobacterial activity against Mycobacterium bovis BCG after 6 days by Microdilution Resazurin assay
# Format: functional
# Details: variant bovis BCG, 144 h
row,SMILES,MIC95 [µM]
1,CC1(C)CCc2c(ccc3oc4ccc(O)cc4c23)O1,140
2,CC1(C)C=Cc2c(ccc3oc4cccc(O)c4c23)O1,94
3,CC1(C)C=Cc2c(ccc3oc4ccc(O)cc4c23)O1,79
4,CC1(C)C=Cc2c(ccc3oc4c(Cl)cccc4c23)O1,> 350
5,CC(=O)c1ccc2oc3ccc4c(c3c2c1)CCC(C)(C)O4,> 340
6,CC1(C)C=Cc2c(ccc3oc4cc(O)ccc4c23)O1,94
7,COc1cccc2oc3ccc4c(c3c12)C=CC(C)(C)O4,89
8,CC1(C)C=Cc2c(ccc3oc4c(O)cccc4c23)O1,94
9,CC1(C)C=Cc2c(ccc3oc4ccc(Cl)cc4c23)O1,100
10,NNC(=O)c1ccncc1 [ISONIAZID],4.4
11,CC1(C)C=Cc2c(ccc3oc4cc(-c5ccc6c(c5)oc5ccc7c(c56)C=CC(C)(C)O7)ccc4c23)O1,> 200
12,COc1cccc2c1oc1ccc3c(c12)C=CC(C)(C)O3,89
13,CC1(C)C=Cc2c(ccc3oc4cccc(Cl)c4c23)O1,> 350
14,COc1ccc2oc3ccc4c(c3c2c1)C=CC(C)(C)O4,89
15,COc1ccc2oc3cc4c(cc3c2c1)OC(C)(C)C=C4,89
16,CC1(C)C=Cc2c(ccc3oc4ccccc4c23)O1,100
17,CC1(C)C=Cc2c(ccc3oc4cc(Br)ccc4c23)O1,150
18,COc1ccc2c(c1)oc1ccc3c(c12)C=CC(C)(C)O3,> 360
19,CC1(C)C=Cc2c(ccc3c2oc2ccc4c(c23)C=CC(C)(C)O4)O1,> 300
